From article PMC9186373, “Design, synthesis, and biological evaluation of novel carbazole derivatives as potent DNMT1 inhibitors with reasonable PK properties” (Journal of Enzyme Inhibition and Medicinal Chemistry, 2022)

Assays:
DNMT1 = DNMT1 (Homo sapiens, UniProt P26358); test: H3-labelled radioactive methylation assay; type: biochemical; conditions: H3-labeled radioactive methylation assay; 40 nM DNMT1
Experimental: The DNMT1 radioactive methylation inhibition assays were performed in 30 µL reactions containing 0.1 µM adenosyl-L-methionine S-[methyl-^3H] (^3H-SAM, ^15 Ci/mmol, PerkinElmer), 0.25 µg/mL poly (dI-dC)·poly (dI-dC) (Sigma), 40 nM DNMT1 in 50 mM Tris-HCl, pH 8.0, 1 mM DTT, 5% glycerol, and 100 µg/mL BSA. The proteins were preincubated with a range of compound concentrations for 15 min at room temperature before adding the substrate and [^3H] SAM. After 60 min of incubation at 37 °C, the reaction systems were transferred to a MultiScreen HTS filter plate (Millipore), and the plate was washed 3 times with doubly distilled H2O via a vacuum. The radioactivity was determined by liquid scintillation counting (MicroBeta, PerkinElmer). IC50 values were derived by fitting the data for the inhibition percentage to a dose-response curve by non-linear regression in GraphPad Prism 5.0.
To quantitatively analyse DNMT1 inhibitory effect, the H^3-labelled radioactive methylation assay was conducted to measure the methyltransferase activity of DNMT1 at a range of concentrations for these compounds.

human DNMT1 = test: ELISA EpiQuik DNA methyltransferase (DNMT) activity/inhibitor assay; type: biochemical; conditions: 200 nM purified DNMT1, EpiQuik kit; for Inh% at 50 μM: 50 μM compound; for Inh% at 100 μM: 100 μM compound
Experimental: (§1) All the compounds were first screened using an ELISA EpiQuik DNA methyltransferase (DNMT) activity/inhibitor assay kit (Epigentek). To measure the effects of the compounds on human DNMT1 activity, 200 nM purified DNMT1 was incubated with 50 µM and 100 µM of the different compounds and S-adenosylmethionine in the DNMT assay buffer in the assay plate at 37 °C for 2 h[36]. Next, every sample was incubated with the capture and detection antibody, followed by incubation with developer solution for 10 min at room temperature. The absorbance was measured at 450 nm using a POLARstar Omega microplate reader (BMG). S-Adenosylhomocysteine (AdoHcy) was used as a positive control. Methylation inhibition assays for EZH2, LSD, and G9a were performed in modified Tris, pH 9.0, buffer using AlphaLisa technology. An amount of 10 µL of the reaction system contained a corresponding concentration of SAM (Sigma) (EZH2 50 µM, LSD 50 µM, and G9a 50 µM), which was the Km value in each enzymatic reaction, plus 100 nM biotinylated peptide H3 (1–21) (synthesis by GLChina) and the relevant enzyme concentration (0.03 nM EZH2, 0.03 nM LSD, and 0.03 nM G9a). The proteins were preincubated with various compound concentrations for 15 min at room temperature before the substrate and SAM were added. After 60 min of incubation at room temperature, acceptor and donor AlphaLisa beads were added according to the manufacturer’s recommendations. The signals were read in Alpha mode with an EnSpire multimode plate reader (PerkinElmer). IC50 values were derived by fitting the data for the inhibition percentage to a dose-response curve by non-linear regression in GraphPad Prism 5.0[20].
DNMT1 inhibition test was performed on 30 candidates to verify their biochemical activities. The EpiQuik DNA methyl-transferase (DNMT) activity/inhibitor assay kit (Epigentek) was used to identify the activity of synthetic compounds.

PK study in SD rats = type: in vivo; conditions: rat, plasma, SD male rats; for AUC(0-t) / Tmax / half-life: mean ± SD (n = 3); for bioavailability: p.o. 10 mg/kg vs i.v. 2 mg/kg, F = (AUC p.o. × Dose i.v.)/(AUC i.v. × Dose p.o.) × 100%
Experimental: In vivo pharmacokinetic properties of WK-22, WK-23, WK-27, and DC_517 were performed by Medicilon Company, Shanghai, China. SPF-grade SD male rats (8 groups, n = 3 rats per group) with a body weight of 230–260 g were purchased from Shanghai SIPPR-BK LAB Animal Ltd., Shanghai, China, and used for the pharmacokinetic analysis of the tested compounds. All animals were deprived of food overnight after the cannulation surgery. Subsequently, the tested compounds WK-23 and DC_517 were dissolved/suspended in 5% DMSO, 10% Solutol, and 85% water, and the tested compounds WK-22 and WK-27 were dissolved/suspended in 5% DMSO, 40% PEG400, and 55% saline for intravenous administration (i.v.) and oral administration (p.o.), respectively. A final dosage of 2.0 and 10.0 mg/kg rat of the formulated compounds was administered for i.v. and p.o. purposes, respectively, and the blood samples were taken at various time points during a 24 h period. At different time points, blood samples were collected from the femoral vein. The plasma samples were obtained after centrifugation (6800 g, 6 min, 2–8 °C) and stored at −80 °C until the assay. The AUC (area under concentration-time curve) was calculated through the trapezoidal rule with extrapolation to time infinity. The concentration of the compounds in the blood was analysed by LC-MS/MS (Shimadzu liquid chromatographic system and SCIEX Triple Quad 5500+ mass spectrometer, Applied Biosystems, Ontario, Canada). The Tmax, T1/2, and Cmax value was obtained through visual inspection of the plasma concentration-time curve. The Vss value was generated from DAS 3.2.8 software. The F value of WK-23 was calculated with the formula: F = (AUC p.o. × Dose i.v.)/(AUC i.v. × Dose p.o.) × 100%.

DNMT3A/3L = test: Methyltransferase enzymatic selectivity profiling, DNMT3A/3L; type: biochemical; conditions: 1 - selected enzyme inhibition/DNMT1 inhibition; 50 µM
Experimental: (§2) In addition to DNMT1, there are many other methyltransferases that can bind with S-adenosyl-L-methionine (SAM) to facilitate transmethylation reactions[24]^,[25]. To investigate the selectivity of these potent compounds for DNMT1, we then evaluated the inhibitory activities against DNMT1 and other important methyltransferases at the concentration of 50 µM, including DNMT3A/3L, DNMT3B/3L, and other SAM-dependent enzymes[1]^,[2]^,[26], such as EZH2[27], LSD1[28], G9a (histone H3 lysine 9 methyltransferase)[29].
(§3) Here, the selectivity of non-nucleoside DNMT1 inhibitors is somewhat predictable because other methyltransferases mentioned above catalyse different substrates and share very low homology with DNMT1, even in their catalytic domain[30–32]. Subsequently, the screened compounds were evaluated in a dose-dependent assay against HCT116 (human colon cancer cell line) and A549 (human lung carcinoma cell line).
(§4) 493 Relative selectivity index
(§5) 494 Relative selectivity index of DNMT1 is calculated by formula: DNMT1-selectivity
(§6) 495 index =1 - selected enzyme inhibition/DNMT1 inhibition. The closer
(§7) 496 that this value is to 1 or even more than 1, the better DNMT1-selectivity the of the
(§8) 498 Table S1. Relative selectivity index of DNMT1
Cpd. […]

[1] = system: G9a (histone H3 lysine 9 methyltransferase); test: Methylation inhibition assay (AlphaLisa), G9a; type: biochemical; conditions: 50 µM; for Relative selectivity index of DNMT1 vs G9a: 1 - selected enzyme inhibition/DNMT1 inhibition
Experimental: as §1, §2, §4, §5, §6, §7, §8
Cpd. […]

DNMT3B/3L = test: Methyltransferase enzymatic selectivity profiling, DNMT3B/3L; type: biochemical; conditions: 1 - selected enzyme inhibition/DNMT1 inhibition; 50 µM
Experimental: as §2, §3, §4, §5, §6, §7, §8
Cpd. […]

LSD1 = test: Methylation inhibition assay (AlphaLisa), LSD1; type: biochemical; conditions: 1 - selected enzyme inhibition/DNMT1 inhibition; 50 µM
Experimental: as §1, §2, §4, §5, §6, §7, §8
Cpd. […]

EZH2 = test: Methylation inhibition assay (AlphaLisa), EZH2; type: biochemical; conditions: 50 µM; for Relative selectivity index of DNMT1 vs EZH2: 1 - selected enzyme inhibition/DNMT1 inhibition
Experimental: as §1, §2, §4, §5, §6, §7, §8
Cpd. […]

DNMT1, sequence (P26358 whole entry): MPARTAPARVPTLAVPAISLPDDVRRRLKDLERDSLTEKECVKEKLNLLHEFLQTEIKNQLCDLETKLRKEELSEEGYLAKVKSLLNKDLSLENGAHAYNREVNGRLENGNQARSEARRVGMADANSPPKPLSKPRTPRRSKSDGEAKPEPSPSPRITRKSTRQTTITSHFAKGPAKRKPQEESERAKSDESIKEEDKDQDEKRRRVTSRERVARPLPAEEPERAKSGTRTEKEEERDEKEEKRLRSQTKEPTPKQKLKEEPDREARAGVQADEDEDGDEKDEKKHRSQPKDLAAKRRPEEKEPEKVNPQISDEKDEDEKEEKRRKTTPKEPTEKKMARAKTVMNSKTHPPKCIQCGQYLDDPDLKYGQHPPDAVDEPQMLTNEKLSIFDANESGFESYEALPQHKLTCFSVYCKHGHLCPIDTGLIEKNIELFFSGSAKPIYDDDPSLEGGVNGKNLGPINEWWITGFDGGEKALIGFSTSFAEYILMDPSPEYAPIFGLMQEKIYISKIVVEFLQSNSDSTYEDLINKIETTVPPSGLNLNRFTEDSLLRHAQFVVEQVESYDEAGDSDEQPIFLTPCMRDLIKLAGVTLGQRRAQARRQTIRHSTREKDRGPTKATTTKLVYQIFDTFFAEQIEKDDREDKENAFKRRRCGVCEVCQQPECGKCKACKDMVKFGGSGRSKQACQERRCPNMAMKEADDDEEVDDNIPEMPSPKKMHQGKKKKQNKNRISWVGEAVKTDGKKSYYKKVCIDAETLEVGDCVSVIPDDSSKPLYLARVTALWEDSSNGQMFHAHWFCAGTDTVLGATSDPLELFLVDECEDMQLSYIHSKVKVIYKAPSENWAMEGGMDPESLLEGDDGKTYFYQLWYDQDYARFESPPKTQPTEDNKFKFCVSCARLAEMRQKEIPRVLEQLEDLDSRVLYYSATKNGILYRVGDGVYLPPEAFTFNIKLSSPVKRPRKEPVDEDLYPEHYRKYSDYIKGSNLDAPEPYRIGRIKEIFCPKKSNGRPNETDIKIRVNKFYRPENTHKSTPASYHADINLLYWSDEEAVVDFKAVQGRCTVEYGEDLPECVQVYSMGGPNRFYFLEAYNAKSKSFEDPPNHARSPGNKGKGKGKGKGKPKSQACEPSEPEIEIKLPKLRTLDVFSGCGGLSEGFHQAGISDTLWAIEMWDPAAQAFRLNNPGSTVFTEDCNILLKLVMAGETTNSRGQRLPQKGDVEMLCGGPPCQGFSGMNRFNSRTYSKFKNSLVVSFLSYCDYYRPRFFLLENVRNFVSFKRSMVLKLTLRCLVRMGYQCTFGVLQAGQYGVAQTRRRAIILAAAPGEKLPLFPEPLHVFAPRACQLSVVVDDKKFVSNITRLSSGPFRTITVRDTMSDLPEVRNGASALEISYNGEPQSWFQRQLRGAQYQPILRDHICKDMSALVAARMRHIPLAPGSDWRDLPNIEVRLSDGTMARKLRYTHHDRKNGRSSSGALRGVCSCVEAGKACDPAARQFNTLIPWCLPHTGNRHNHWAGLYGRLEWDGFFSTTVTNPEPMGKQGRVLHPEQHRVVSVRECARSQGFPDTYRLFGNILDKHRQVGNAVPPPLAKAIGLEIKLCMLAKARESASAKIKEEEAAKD

Structure (SMILES)	IC50 (DNMT1) [µM]	Inh% at 50 μM (human DNMT1) [%]	Inh% at 100 μM (human DNMT1) [%]	AUC(0-t) (PK study in SD rats; iv, i.v. (2 mg/kg)) [ng·h/mL]	Tmax (PK study in SD rats; iv, i.v. (2 mg/kg)) [h]	half-life (PK study in SD rats; iv, i.v. (2 mg/kg)) [h]	bioavailability (PK study in SD rats; po) [%]	AUC(0-t) (PK study in SD rats; po, p.o. (10 mg/kg)) [ng·h/mL]	Tmax (PK study in SD rats; po, p.o. (10 mg/kg)) [h]	half-life (PK study in SD rats; po, p.o. (10 mg/kg)) [h]	melting point [°C]	Relative selectivity index of DNMT1 vs DNMT 3A/3L (DNMT3A/3L)	Relative selectivity index of DNMT1 vs G9a [1]	Relative selectivity index of DNMT1 vs DNMT 3B/3L (DNMT3B/3L)	Relative selectivity index of DNMT1 vs LSD1 (LSD1)	Relative selectivity index of DNMT1 vs EZH2 (EZH2)	inhibitory activity against G9a ([1]; Figure 3)	bioavailability (PK study in SD rats; oral) [%]	inhibitory activity against EZH2 (EZH2; Figure 3)
OC(CNCCc1c[nH]c2ccccc12)COC(Cn1c2ccccc2c2ccccc21)Cn1c2ccccc2c2ccccc21 (centres unmarked) [DC_517, reference compound]	2.3	96	98	1020 ± 60.9	0.08	6.7 ± 0.2	38.7 ± 2.9	2080 ± 113	6	6.7 ± 0.9									
Oc1ccc(CCNCC(O)Cn2c3ccccc3c3cc(F)ccc32)cc1 (centres unmarked) [WK-3, 4-(2-((3-(3-Fluoro-9H-carbazol-9-yl)-2-hydroxypropyl)amino)ethyl)phenol]	27	71	79								140 to 142								
CC(CO)NCC(O)Cn1c2ccccc2c2cc(F)ccc21 (centres unmarked) [WK-7, 2-((3-(3-Fluoro-9H-carbazol-9-yl)-2-hydroxypropyl)amino)propan-1-ol]	9.6	67	83								119 to 121								
OC(CNCCc1ccc(F)cc1)Cn1c2ccc(F)cc2c2cc(F)ccc21 (centres unmarked) [WK-14, 1-(3,6-Difluoro-9H-carbazol-9-yl)-3-((4-fluorophenethyl)amino)propan-2-ol]	6	79	84								114 to 116								
OC(CNCCc1ccccc1)Cn1c2ccc(F)cc2c2cc(F)ccc21 (centres unmarked) [WK-15, 1-(3,6-Difluoro-9H-carbazol-9-yl)-3-(phenethylamino)propan-2-ol]	7.7	75	82								91 to 93								
CC(O)CNCC(O)Cn1c2ccc(F)cc2c2cc(F)ccc21 (centres unmarked) [WK-18, 1-(3,6-Difluoro-9H-carbazol-9-yl)-3-((2-hydroxypropyl)amino)propan-2-ol]	10	70	87								130 to 132								
CC(C)(C)NCC(O)COC(Cn1c2ccccc2c2cc(F)ccc21)Cn1c2ccccc2c2cc(F)ccc21 (centres unmarked) [WK-25, 1-((1,3-Bis(3-fluoro-9H-carbazol-9-yl)propan-2-yl)oxy)-3-(tert-butylamino)propan-2-ol]		100	100								183 to 185	0.94	0.99	1.44	0.02	0.89			
OC[C@H]1CN(CC(O)COC(Cn2c3ccccc3c3cc(F)ccc32)Cn2c3ccc(F)cc3c3cc(F)ccc32)CCN1 (stereo partly drawn) [WK-27, 1-((1-(3,6-Difluoro-9H-carbazol-9-yl)-3-(3-fluoro-9H-carbazol-9-yl)propan-2-yl)oxy)-3-((R)-3-(hydroxymethyl)piperazin-1-yl)propan-2-ol]		100	100	427 ± 60	0.1	11.5 ± 1.2	1.8 ± 1.9	28.5 ± 40	2.7 ± 1.2	3.9 ± 2.5	150 to 152	0.03	0.97	0.03	0.05	0.9	nearly no inhibitory activities	1.8	nearly no inhibitory activities
